The record followed here is patent publication US9339486B2, “Heterocyclic modulators of cannabinoid receptors” (THE CLEVELAND CLINIC FOUNDATION, priority 2008, dated 2016).

The subject of data set [1] is spinal nerve ligation neuropathic pain model. The data set can be described thus: Tactile allodynia in SNL neuropathic pain model (von Frey). Format: in vivo, rat. Conditions: for effect of antagonist alone on paw withdrawal threshold: 5 mg/kg i.p. alone. The method, then:
Adult, male Sprague Dawley (Harlan Sprague Dawley, Indianapolis, Ind.) rats weighing 120-150 gm were used in experimental procedures approved by the Animal Care and Use Committee of the M. D. Anderson Cancer Center, University of Texas. Animals were housed three per cage on a 12/12 hr light/dark cycle with water and food pellets available ad libitum.
All surgical procedures were performed under deep isoflurane anesthesia in 100% 02. The spinal nerve ligation (SNL) was performed as described previously. Kim, S. H., et al., An Experimental Model for Peripheral Neuropathy Produced by Segmental Spinal Nerve Ligation in the Rat, Pain, 1992, 50:355-63. Briefly, a midline incision above the lumbar spine exposed the left L6 transverse process. The process was then removed, the left L5 and L6 spinal nerves were isolated, and both nerves were tightly ligated with 6-0 silk. Prophylactic antibiotic (norfloxacin 5 mg/kg subcutaneously) and analgesic (buprenorphine, 0.2-0.5 mg/kg, or morphine, 2.5 mg/kg, given subcutaneously) were administered once daily for 3 days. All the experiments were conducted 10-14 days after spinal nerve ligation.
(§1) Rats were placed in a compartment with a wire mesh bottom and allowed to acclimate for a minimum of 30 min before testing. Mechanical sensitivity was assessed using a series of Von Frey filaments with logarithmic incremental stiffness (0.41, 0.70, 1.20, 2.00, 3.63, 5.50, 8.50, and 15.1 g) (Stoelting, Wood Dale, Ill.) as previously described, and 50% probability withdrawal thresholds were calculated with the up-down method. Chaplan, S. R., et al., Quantitative Assessment of Tactile Allodynia in the Rat Paw, J. Neurosci. Methods, 1994, 53:55-63; Dixon, W., The Up-and-Down Method for Small Samples, J. Am. Stat. Assoc., 1965, 60:967-78. In brief, beginning with the 2.0-g probe, filaments were applied to the plantar surface of a hind paw for 6-8 s, in an ascending or descending order after a negative or positive withdrawal response, respectively. Six consecutive responses from the first change in the response were used to calculate the withdrawal threshold (in grams). In cases where response thresholds fell outside the range of detection, 15.00 and 0.25 g were, respectively, assigned for continuous negative or positive responses to the limit of stimuli. The percent maximal possible effect (% MPE) was calculated as ([postdrug threshold−baseline threshold]/[cutoff threshold (15 g)−baseline threshold])×100.
(§2) Statistical analyses were carried out using BMDP 2007 (Statistical Solutions, Saugus, Mass., USA) and Graph Pad Prism (version 4.03; Graph Pad Software Inc., San Diego, Calif., USA). Data were analyzed using one-way ANOVA, repeated measures ANOVA, or t-test where appropriate. If ANOVA was significant, Tukey-Kramer post hoc analysis was used for multiple group comparison. Area under the curve (AUC) was calculated using the trapezoidal rule. The results are presented as mean±s.e. mean and were considered significant at P<0.05. Analyses of the dose-response curves and statistics were obtained using the pharmacologic software programs of Tallarida and Murray and included calculation of the ED50 values and their 95% confidence intervals (CI). Tallarida, R. J., et al., Manual of Pharmacologic Calculations With Computer Programs, Second ed. New York: Springer-Verlag, 1987.

Data set [2] relates to paclitaxel-induced neuropathic pain model. The data set can be described thus: animal or person. The class given is in vivo, rat. The method, then:
Groups of rats received daily i.p. injections of either vehicle or 1.0 mg/kg paclitaxel daily for four consecutive days for a final cumulative dose of 4 mg/kg; using an injection volume of 1 ml/kg. Polomano, R. C., et al., A Painful Peripheral Neuropathy in the Rat Produced by the Chemotherapeutic Drug, Paclitaxel, Pain, 2001, 94:293-304. The vehicle used in our experiments was the same vehicle used clinically for paclitaxel injections and is composed of a mixture of 10% saline and Cremophor EL® and […]. Baseline responses to mechanical stimulation of the hindpaw (see below) were established on day zero and continued daily until the development of neuropathy was confirmed.
as §1
To determine sensitivity to noxious heat, rats were placed in plexiglass enclosures on a transparent glass surface maintained at 30° C. and allowed to acclimate for 30 min. A thermal testing apparatus, consisting of a heat-emitting projector lamp and an electronic timer, was used. The device was activated after the lamp is placed directly beneath the planter surface of the hindpaw. The paw withdrawal latency in response to the radiant heat was recorded by a digital timer. A cutoff of 30 s was used to prevent potential tissue damage. After the baseline was measured, three groups of naïve rats (n=10) received 1.0, 3.0, or 10 mg/kg of the compound of Example 3 i.p. Response latencies were determined twice for each rat before drug injection and at 5, 10, 15, 30, 45, 60, 90 and 120 min after IP injection. The percent maximal possible effect (% MPE) was calculated as ([postdrug latency−baseline latency]/[cutoff time (30 s)−baseline latency])×100.
as §2

In data set [3] the target is T1, CB1 (Homo sapiens (Human), UniProt P21554). The data set can be described thus: CB1 Binding Assay ([3H]CP 55940, cell membrane homogenates). Conditions: for % Inhibition of Control Specific Binding / % of Control Specific Binding Mean / % of Control Specific Binding 1st / % of Control Specific Binding 2nd: CB1, test concentration 1.0E−05 (MD); for % of Control Specific Binding 1st: first replicate; for % of Control Specific Binding 2nd: second replicate. The method, then: (§3) After being incubated, the samples were filtered rapidly under vacuum through glass fiber filters (GF/B; Packard) presoaked with 0.3% PEI and rinsed several times with ice-cold buffer containing 50 mM Tris HCl (pH 7.4) and 0.5% BSA using a 96-sample cell harvester (Unifilter; Packard). The filters were dried then counted for radioactivity in a scintillation counter (Topcount; Packard) using a scintillation cocktail (Microscint 0; Packard). The results were expressed as a percentage of the inhibition of the control radioligand-specific binding. The reference standard compounds were tested in each experiment at several concentrations to obtain a competition curve from which its IC50 was calculated.

Data set [4] addresses T2, CB2 (Homo sapiens (Human), UniProt P34972). The data set can be described thus: CB2 Binding Assay ([3H]WIN 55212-2, cell membrane homogenates). Conditions: for % Inhibition of Control Specific Binding / % of Control Specific Binding Mean / % of Control Specific Binding 1st / % of Control Specific Binding 2nd: CB2, test concentration 1.0E−05 (MD); for % of Control Specific Binding 1st: first replicate; for % of Control Specific Binding 2nd: second replicate. The method, then:
as §3, with “Cell membrane homogenates (15 μg protein) were incubated for 120 min at 37° C. with 0.8 nM [3H]WIN 55212-2 (the reference standard [Munro, 1993 #1321]) in the absence or presence of the test compound in a buffer containing 50 mM HEPES/Tris HCL (pH 7.4), 5 mM MgCl2, 2.5 mM EGTA, and 0.1% BSA. Nonspecific binding was determined in the presence of 10 μM WIN 55212-2. After” for “After”

Data set [5] addresses T1, CB1. The data set can be described thus: CB1/CB2 Functional Assay (GTPγ[35S]), CB1 membranes. The class given is biochemical. The procedure:
(§4) A dose response curve was generated at eight concentrations in duplicate on CB1 and CB2 in light of reference agonists. The reference agonists for cannabinoid receptors was CP55,940. See FIGS. 1A, 1B, 2A, 2B, 3A and 3B.
(§5) Membranes (CB1, ES-110-MG or CB2, ES-111-MG) were mixed with GDP (volume:volume) and incubated for at least 15 min on ice. In parallel, GTPγ[^35S] were mixed with the beads (volume:volume) just before starting the reaction. The following reagents were successively added in the wells of an Optiplate: 50 μl of ligand, 20 μl of the membranes:GDP mix, 10 μl of assay buffer for agonist testing and 20 μl of the GTPγ[^35S]: beads mix. The plates were covered with a topseal, shaken on an orbital shaker for 2 min, and then incubated between 30 to 60 min. at room temperature. Then the plates were centrifuged for 10 min at 2000 rpm, incubated at room temperature between 1 to 4 hours and counted for 1 min with a PerkinElmer TopCount reader.

Data set [6] concerns the target T2, CB2. The data set can be described thus: CB1/CB2 Functional Assay (GTPγ[35S]), CB2 membranes. Format: biochemical. The procedure:
as §4, §5

T1 sequence (P21554 whole entry): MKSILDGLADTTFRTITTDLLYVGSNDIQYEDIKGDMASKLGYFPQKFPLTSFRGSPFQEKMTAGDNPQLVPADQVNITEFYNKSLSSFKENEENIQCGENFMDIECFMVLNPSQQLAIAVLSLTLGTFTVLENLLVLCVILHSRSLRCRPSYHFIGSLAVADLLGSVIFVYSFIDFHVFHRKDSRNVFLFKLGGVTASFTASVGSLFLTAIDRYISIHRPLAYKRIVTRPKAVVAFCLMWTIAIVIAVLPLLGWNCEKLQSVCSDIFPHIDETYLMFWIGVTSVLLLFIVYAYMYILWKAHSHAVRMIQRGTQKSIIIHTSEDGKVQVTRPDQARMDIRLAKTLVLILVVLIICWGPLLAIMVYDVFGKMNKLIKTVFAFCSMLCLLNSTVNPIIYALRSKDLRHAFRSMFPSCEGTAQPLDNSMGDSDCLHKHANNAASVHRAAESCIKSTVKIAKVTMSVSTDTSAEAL
T2 sequence (P34972 whole entry): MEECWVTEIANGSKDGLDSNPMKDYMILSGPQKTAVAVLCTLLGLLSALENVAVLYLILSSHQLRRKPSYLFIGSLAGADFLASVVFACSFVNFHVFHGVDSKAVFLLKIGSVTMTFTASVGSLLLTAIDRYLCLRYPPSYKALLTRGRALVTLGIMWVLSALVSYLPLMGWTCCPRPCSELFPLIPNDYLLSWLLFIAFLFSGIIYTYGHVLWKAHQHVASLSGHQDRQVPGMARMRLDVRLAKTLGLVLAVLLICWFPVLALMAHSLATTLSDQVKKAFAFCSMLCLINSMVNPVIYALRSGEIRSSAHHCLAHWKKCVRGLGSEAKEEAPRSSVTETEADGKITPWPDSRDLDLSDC

On to `Cc1c(C(=O)NN2CCCCC2)nn(-c2ccc(Cl)cc2Cl)c1-c1ccc(I)cc1` [AM251, reference compound], for which the “effect of antagonist alone on paw withdrawal threshold” value in data set [1] is listed as “had no effect”.
For the molecule `COc1ccc(C(=O)c2c(C)n(CCN3CCOCC3)c3cc(I)ccc23)cc1` [AM630, reference compound], in data set [1], the “effect of antagonist alone on paw withdrawal threshold” value was “had no effect”.
With `CN1CCCCC1Cn1cc(C(=O)c2cc([N+](=O)[O-])ccc2I)c2ccccc21` (stereo not shown) [AM1241, reference compound], in data set [1] (15 mg/kg i.p.), the “antiallodynic effect versus vehicle” value is given as “produced antiallodynic effects”. Also, in data set [1] (AM1241 15 mg/kg i.p.), the “effect of naloxone pretreatment on analgesic effects” value is reported as “significantly reversed”. Also, the “effect on reversing thermal hyperalgesia compared with 15 mg/kg compound of Example 3 i.p.” value in data set [2] (5 mg/kg i.p.) is “significantly less than”.
For the molecule `CC1(Cc2ccccc2)COc2cc(C(=O)Nc3ccccc3I)ccc21` (stereo not shown) [Example 1, 3-Benzyl-3-methyl-2,3-dihydro-benzofuran-6-carboxylic acid (2-iodo-phenyl)-amide], in data set [3], the “% Inhibition of Control Specific Binding” value is 14%, the “% of Control Specific Binding Mean” value was 85.5%, the “% of Control Specific Binding 1st” value turned out to be 85.7% and the “% of Control Specific Binding 2nd” value worked out at 85.3%. Besides, in data set [4], the “% Inhibition of Control Specific Binding” value came to 23%, the “% of Control Specific Binding Mean” value turned out to be 76.6%, the “% of Control Specific Binding 1st” value is 78.3% and the “% of Control Specific Binding 2nd” value is reported as 74.8%.
A word on the EC50: it is the concentration that produces a half-maximal response. Consider `CC1(Cc2ccccc2)COc2cc(C(=O)NC3CCCCC3)ccc21` (stereo not shown) [Example 2, 3-Benzyl-3-methyl-2,3-dihydro-benzofuran-6-carboxylic acid cyclohexylamide], for which, in data set [3], the “% Inhibition of Control Specific Binding” value amounted to 68%, the “% of Control Specific Binding Mean” value stood at 31.8%, the “% of Control Specific Binding 1st” value is on record as 29.9% and the “% of Control Specific Binding 2nd” value worked out at 33.8%. Besides, the “% Inhibition of Control Specific Binding CB1” value in data set [3] (as repeated in Table 3) was 68%. Moreover, in data set [4], the “% Inhibition of Control Specific Binding” value is recorded as 85%, the “% of Control Specific Binding Mean” value worked out at 14.9%, the “% of Control Specific Binding 1st” value amounted to 21.3% and the “% of Control Specific Binding 2nd” value turned out to be 8.6%. Further, in data set [4] (as repeated in Table 4), the “% Inhibition of Control Specific Binding CB2” value was determined as 85%. Further, the “Compound Function” value in data set [5] is “Inverse”. Also, the “% Activation Average” value in data set [5] (reference agonist CP55,940) is recorded as −35.79%. Besides, the “Compound Function” value in data set [6] was “Agonist”. The concentration for a half-maximal effect (EC50) in data set [6] (read-out: EC50 (nM) for GTP Binding) was determined as 479 nM. For the same molecule, in data set [6] (reference agonist CP55,940), the “% Activation Average” value worked out at 52.94%.
Turning to `CC1(Cc2ccccc2)COc2ccc(C(=O)Nc3ccccc3I)cc21` (stereo not shown) [Example 4, 3-Benzyl-3-methyl-2,3-dihydro-benzofuran-5-carboxylic acid-o-iodoanilide], in data set [3], the “% Inhibition of Control Specific Binding” value is listed as 9%, the “% of Control Specific Binding Mean” value was determined as 90.5%, the “% of Control Specific Binding 1st” value was 85.9% and the “% of Control Specific Binding 2nd” value was 95.1%. In data set [4], the “% Inhibition of Control Specific Binding” value worked out at 15%, the “% of Control Specific Binding Mean” value was determined as 84.7%, the “% of Control Specific Binding 1st” value is 83.9% and the “% of Control Specific Binding 2nd” value came out at 85.5%.
For the molecule `CC1(Cc2ccccc2)COc2ccc(C(=O)N3CCCCC3)cc21` (stereo not shown) [Example 6, 3-benzyl-3-methyl-2,3-dihydrobenzofuran-5-carboxylic acid-piperidine amide], in data set [4], the “% Inhibition of Control Specific Binding” value is given as 31%, the “% of Control Specific Binding Mean” value was 69.4%, the “% of Control Specific Binding 1st” value stood at 71.6% and the “% of Control Specific Binding 2nd” value came out at 67.3%.
As to `C=CCN1CC[C@]23c4c5ccc(O)c4O[C@H]2C(=O)CC[C@@]3(O)[C@H]1C5` [naloxone, reference compound], the “effect per se on paw withdrawal threshold” value in data set [1] (10 mg/kg i.p.) is listed as “did not affect paw withdrawal threshold”.
For `CC(=O)O[C@H]1C(=O)[C@@]2(C)[C@H]([C@H](OC(=O)c3ccccc3)[C@]3(O)C[C@H](OC(=O)[C@H](O)[C@@H](NC(=O)c4ccccc4)c4ccccc4)C(C)=C1C3(C)C)[C@]1(OC(C)=O)CO[C@@H]1C[C@@H]2O` [paclitaxel, reference compound], in data set [2] (rat, in vivo), the “paw withdrawal threshold to mechanical stimulation, left paw” value amounted to 2.8 ± 0.15 g and the “paw withdrawal threshold to mechanical stimulation, right paw” value is 2.9 ± 0.19 g.
